Drawing on ChEMBL document CHEMBL2074037, “Molecular characterization and tissue distribution of a new organic anion transporter subtype (oatp3) that transports thyroid hormones and taurocholate and comparison with oatp2” (J Biol Chem, 1998), this text covers Activity and Km for 6 molecules.

Data set [1] deals with T1, Solute carrier organic anion transporter family member 1A4 (Rattus norvegicus, UniProt O35913).
T1 sequence (O35913 whole entry): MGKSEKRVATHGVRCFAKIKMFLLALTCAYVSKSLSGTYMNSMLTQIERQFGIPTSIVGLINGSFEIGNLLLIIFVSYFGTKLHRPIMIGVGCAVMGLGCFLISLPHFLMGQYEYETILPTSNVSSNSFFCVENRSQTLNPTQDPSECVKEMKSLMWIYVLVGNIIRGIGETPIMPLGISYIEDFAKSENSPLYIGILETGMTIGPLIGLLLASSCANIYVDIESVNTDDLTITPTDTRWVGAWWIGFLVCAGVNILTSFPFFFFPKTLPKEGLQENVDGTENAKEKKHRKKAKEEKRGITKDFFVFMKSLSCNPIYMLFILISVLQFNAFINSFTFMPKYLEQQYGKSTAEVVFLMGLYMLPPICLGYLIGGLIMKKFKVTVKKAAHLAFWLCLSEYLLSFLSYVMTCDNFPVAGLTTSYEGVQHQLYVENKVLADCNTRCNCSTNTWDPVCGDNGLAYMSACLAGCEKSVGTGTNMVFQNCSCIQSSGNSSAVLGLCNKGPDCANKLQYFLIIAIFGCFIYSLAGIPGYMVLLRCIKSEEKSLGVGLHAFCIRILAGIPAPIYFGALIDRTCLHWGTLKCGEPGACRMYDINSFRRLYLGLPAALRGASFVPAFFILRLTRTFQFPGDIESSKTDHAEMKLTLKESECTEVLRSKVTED
Put plainly: TP_TRANSPORTER: inhibition of Taurocholate uptake (Taurochorate: 1 uM, E217betaG: 200 uM, data not shown) in Xenopus laevis oocytes. Type of data set: functional, cell-based. The conditions noted are these: oocyte.

The target in data set [2] is T1, Solute carrier organic anion transporter family member 1A4. Put plainly: TP_TRANSPORTER: inhibition of Taurocholate uptake (Taurochorate: 1 uM, T4: 200 uM, data not shown) in Xenopus laevis oocytes. Type of data set: functional, cell-based. The conditions noted are these: oocyte.
Data set [3] shares this target. Put plainly: TP_TRANSPORTER: inhibition of Taurocholate uptake (Taurochorate: 1 uM, T3: 200 uM, data not shown) in Xenopus laevis oocytes. Type of data set: functional, cell-based. The conditions noted are these: oocyte.
For data set [4] the target is unchanged. Put plainly: TP_TRANSPORTER: inhibition of Taurocholate uptake (Taurochorate: 1 uM, BSP: 200 uM, data not shown) in Xenopus laevis oocytes. The conditions noted are these: oocyte. Type of data set: functional, cell-based.
Substrate in data set [5]: N[C@@H](Cc1cc(I)c(Oc2cc(I)c(O)c(I)c2)c(I)c1)C(=O)O
Put plainly: (§1) TP_TRANSPORTER: uptake in Xenopus laevis oocytes. Type of data set: functional, cell-based, Oocyte.

Substrate in data set [6]: N[C@@H](Cc1cc(I)c(Oc2ccc(O)c(I)c2)c(I)c1)C(=O)O
Described as §1. The class given is functional, cell-based, Oocyte.

As to `C[C@]12CC[C@@H]3c4ccc(O)cc4CC[C@H]3[C@@H]1CC[C@@H]2O[C@@H]1O[C@H](C(=O)O)[C@@H](O)[C@H](O)[C@H]1O` [ESTRADIOL 17B GLUCURONIDE], the Activity entry in data set [1] is “inhibitor [+]”.
In the case of `N[C@@H](Cc1cc(I)c(Oc2cc(I)c(O)c(I)c2)c(I)c1)C(=O)O` [LEVOTHYROXINE], the Activity result in data set [2] was “inhibitor [+]”.
Take `N[C@@H](Cc1cc(I)c(Oc2ccc(O)c(I)c2)c(I)c1)C(=O)O` [LIOTHYRONINE]: in data set [3], the Activity entry was “inhibitor [+]”.
As for `O=C1OC(c2ccc(O)c(S(=O)(=O)[O-])c2)(c2ccc(O)c(S(=O)(=O)[O-])c2)c2c(Br)c(Br)c(Br)c(Br)c21.[Na+].[Na+]` [SULFOBROMOPHTHALEIN SODIUM], the Activity entry in data set [4] is “inhibitor [+]”.

B1: Solute carrier organic anion transporter family member 1A5 (Rattus norvegicus) (protein)
chain: MGETEKRVATHEVRCFSKIKMFLLALTWAYVSKSLSGIYMNTMLTQIERQFDIPTSIVGFINGSFEIGNLLLIIFVSYFGTKLHRPIMIGVGCVIMGLGCFLMSLPHFLMGRYEYETTISPTSNLSSNSFLCMENRSQTLKPTQDPAECIKEMKSLMWIYVLVGNIIRGIGETPIMPLGISYIEDFAKSENSPLYIGILETGKVFGPIVGLLLGSFCASIYVDTGSVNTDDLTITPTDTRWVGAWWIGFLICAGVNILSSIPFFFFPKTLPKEGLQDDVDGTNNDKEEKHREKAKEENRGITKDFLPFMKSLSCNPIYMLLILTSVLQINAFINMFTFLPKYLEQQYGKSTAEVVLLIGVYNLPPICIGYLLIGFIMKKFKITVKKAAYMAFCLSLFEYLLYFLHFMITCDNFPVAGLTASYEGVHHPLYVENKVLADCNRGCSCSTNSWDPVCGDNGLAYMSACLAGCKKSVGTGTNMVFQNCSCIRSSGNSSAVLGLCKKGPECANKLQYFLIMSVIGSFIYSITAIPGYMVLLRCIKPEEKSLGIGLHAFCTRVFAGIPAPIYFGALIDRTCLHWGTLKCGEPGACRMYNINNFRRIYLVLPAALRGSSYLPALFILILMRKFQFPGEIDSSETELAEMKITVKKSECTDVHGSPQVENDGELKTRL
As a reminder, the Km is the concentration of substrate that gives half-maximal velocity. For B1, the Km in data set [5] amounted to 4.93 µM; in data set [6], 7.33 µM.

B2: Solute carrier organic anion transporter family member 1A4 (Rattus norvegicus) (protein)
chain: MGKSEKRVATHGVRCFAKIKMFLLALTCAYVSKSLSGTYMNSMLTQIERQFGIPTSIVGLINGSFEIGNLLLIIFVSYFGTKLHRPIMIGVGCAVMGLGCFLISLPHFLMGQYEYETILPTSNVSSNSFFCVENRSQTLNPTQDPSECVKEMKSLMWIYVLVGNIIRGIGETPIMPLGISYIEDFAKSENSPLYIGILETGMTIGPLIGLLLASSCANIYVDIESVNTDDLTITPTDTRWVGAWWIGFLVCAGVNILTSFPFFFFPKTLPKEGLQENVDGTENAKEKKHRKKAKEEKRGITKDFFVFMKSLSCNPIYMLFILISVLQFNAFINSFTFMPKYLEQQYGKSTAEVVFLMGLYMLPPICLGYLIGGLIMKKFKVTVKKAAHLAFWLCLSEYLLSFLSYVMTCDNFPVAGLTTSYEGVQHQLYVENKVLADCNTRCNCSTNTWDPVCGDNGLAYMSACLAGCEKSVGTGTNMVFQNCSCIQSSGNSSAVLGLCNKGPDCANKLQYFLIIAIFGCFIYSLAGIPGYMVLLRCIKSEEKSLGVGLHAFCIRILAGIPAPIYFGALIDRTCLHWGTLKCGEPGACRMYDINSFRRLYLGLPAALRGASFVPAFFILRLTRTFQFPGDIESSKTDHAEMKLTLKESECTEVLRSKVTED
B2: the Km in data set [5] worked out at 6.53 µM; in data set [6], 5.87 µM.
